Tests used:
[1] = system: SMARCA4-R1157W mutant HCT116 cell line-derived xenograft; experiment: CDX mouse model, SMARCA4-R1157W; type: in vivo, BALB/c female nude mice; conditions: oral, 14 days
Protocol: (§1) To establish cell line-derived xenograft (CDX) mouse models, 6-week-old BALB/c female nude mice were obtained from the Model Animal Research Center of Nanjing University (Nanjing, China). All animal experimental procedures were approved by the Animal Ethical and Welfare Committee of Nanjing University. Approximately 5 × 10^6 SMARCA4 wild-type or R1157W mutant HCT116 cells were injected subcutaneously into the right flank of each mouse. The mice were randomized into 4 groups (6 mice/group) when the tumor volume reached approximately 80 mm^3 (volume = 0.52 × length × width^2), at which point drug dosing every day was initiated. GSK-PTi (GSK3368715, HY-128717A, MCE)[32] and BBAi-1 (BRM/BRG1 ATP inhibitor-1, HY-119374, MCE)[33] were dissolved in 10% DMSO, 90% saline (containing 20% SBE-β-CD). GSK-PTi (25 mg/kg) and BBAi-1 (2.5 mg/kg) were administered orally. Body weight and tumor volume of the mice were measured every two days. Treatments were continued for 14 days, after which all mice were euthanized for analysis. Tumor tissues were weighed and prepared for immunoblotting or immunohistochemical staining. Tumor growth inhibition (TGI) rate was measured using the formula: TGI (%) = [1−(Vt−V0 in treated group)/Vt−V0 in vehicle group)]×100 where Vt is the volume on each day and V0 is the volume at the beginning of the treatment.

[2] = system: SMARCA4-WT HCT116 cell line-derived xenograft; experiment: CDX mouse model, SMARCA4-WT; type: in vivo, BALB/c female nude mice; conditions: oral, 14 days
Protocol: as §1

SMARCA2 and SMARCA4 = conditions: SMARCA bromodomain inhibitor; cited from earlier work
Source text: However, SMARCA2, another core subunit of the SWI/SNF complex with ATPase activity, also harbors a highly conserved HELICc domain (Supplementary Fig. 7a). […] It would be interesting to test whether other HELICc domain-containi ...

[3] = system: ATP (ATPase activity of SMARCA4); experiment: ATPase assay, γ-32P ATP thin-layer chromatography; type: biochemical; conditions: in the presence of DNA, TLC, 30 °C, 0-90 min, Fig. 4b
Protocol: The ATPase assays were performed as described previously with modifications. The 20 μl reactions contained 50 mM Tris (pH 7.5), 50 mM NaCl, 8 mM MgCl2, 0.5 mM PMSF, 2 mM ATP, 2 mM DTT, and 1 μg of a 1 kb DNA fragment. The reaction was initiated by adding 1 μl of 10 mCi/ml [γ-^32P] ATP (3000 Ci/mmole; PerkinElmer) and 1 μg of SMARCA4 wild-type or mutant proteins. The reactions were then incubated at 30 °C for the indicated times (0, 15, 30, 60, and 90 min) and were stopped by the addition of 5 μl of 500 mM EDTA. One microliter of the reaction mixture was spotted onto PEI-cellulose TLC plates (Merck), and chromatography was run in 0.5 M LiCl, 1 M formic acid. The ratio of inorganic phosphate to ATP at each time point was quantified using a Molecular Dynamics Phosphorimager (Amersham Biosciences) and ImageQuant TL software.

mononucleosomes = experiment: Nucleosome sliding assay; type: biochemical; conditions: 60 or 90 min, 30 °C, 2 mM ATP, Fig. 4c
Protocol: The nucleosome sliding assay was performed as previously described with several modifications[41],[47]. A 255 bp DNA template from the Widom 601 positioning sequence[48] was assembled into mononucleosomes by the “salt jump” method in the presence of core histones isolated from HeLa cells. Mononucleomes (100 ng DNA) were incubated with wild-type or mutant SMARCA4 proteins (100 ng) in 40 μl reactions containing 20 mM HEPES–NaOH (pH 7.9), 50 mM MgCl2, 1 mM DTT, 0.1 mM PMSF, 0.1 mg/ml BSA, 3% glycerol, 0.02% NP-40, 0.02% Triton X-100, 2 mM ATP at 30 °C for 0, 30, 60, or 90 min. Reactions were quenched by the addition of 20 mM EDTA and 1% glycerol. Samples were resolved by 6% native polyacrylamide/0.5×TBE gel electrophoresis and visualized by SYBR green staining (Invitrogen).

[4] = system: ATP (ATPase activity of SMARCA4); experiment: ATPase kinetic assay (ATPase activity assay kit); type: biochemical
Protocol: An ATPase activity assay kit (#MAK113, Sigma,) was used to measure the Kinetic parameters (Vmax, Km, and Kcat) of SMARCA4 on ATP. In detail, SMARCA4-WT and -R1157W mutant proteins were incubated with saturating amounts of plasmid DNA and various concentrations of ATP. Reaction rates were determined by quantitating the fraction of ATP hydrolyzed at multiple time points. Kinetic parameters were determined by fitting the initial rate data to the Michaelis–Menten equation using the Origin software. All reactions were performed in triplicate.

[5] = GSK-PTi 25 mg/kg and/or BBAi-1 2.5 mg/kg, daily, 6 mice/group
[6] = saturating plasmid DNA, various ATP concentrations, Michaelis–Menten fit, triplicate, mean ± SD
[7] = over 2-fold higher, Supplementary Fig. 5c, d

Compound: CCOCC1(COCC)CCC(c2[nH]ncc2CN(C)CCNC)CC1 [GSK-PTi]
- tumor growth inhibition (TGI) rate [1, 5]: 45.3%
- therapeutic effect of daily single treatment (versus SMARCA4-WT CDX) [1]: better therapeutic effect
- effect in SMARCA4-R1157W mutant versus SMARCA4-WT model mice ([1]; daily, comparison of the two model mouse groups): no statistically significant differences
- tumor growth inhibition (TGI) rate [2, 5]: 23%
- therapeutic effect of daily single treatment [2]: moderate therapeutic effect

Compound: O=C(/C=C/N1C[C@H]2C[C@@H]1CN2c1ccccn1)c1ccccc1O [PFI-3]
- differentiation between SMARCA2 and SMARCA4 (SMARCA2 and SMARCA4): could not differentiate between SMARCA2 and SMARCA4

Compound: SMARCA4-R1157W: R1157W mutant SMARCA4 protein
- ATPase activity compared to SMARCA4-WT [3]: significantly augmented
- lateral sliding of centrally positioned nucleosomes compared to SMARCA4-WT (mononucleosomes): further catalyzed lateral sliding of centrally positioned nucleosomes
- Kcat / Km ([4]; saturating plasmid DNA, various ATP concentrations): 17.47 M⁻¹ s⁻¹
- Kcat [4, 6]: 0.00242 ± 6.7e-05 s⁻¹
- Km [4, 6]: 138 ± 17.4 µM
- Vmax [4, 6]: 241.6 ± 8.16 mM/min/mg

Compound: SMARCA4-WT mutant: as printed; probably misprint for SMARCA4-R1157W mutant protein
- Kcat relative to SMARCA4-WT protein [4, 7]: over 2 fold
- Vmax relative to SMARCA4-WT protein [4, 7]: over 2 fold
